Measurements taken from ChEMBL document CHEMBL5505983, “Design, synthesis, and molecular modeling studies of novel 2-quinolone-1,2,3-triazole-α-aminophosphonates hybrids as dual antiviral and antibacterial agents” (Eur J Med Chem, 2024).
In brackets after ≈: the same amount, converted by molar mass.

Key:
Yellow fever virus = assay: Antiviral activity against Yellow fever virus infected in human Huh-7 cells assessed as inhibition of cytopathic effect by microscopy based analysis; format: functional, organism-based
[1] = Cytotoxicity against human Huh-7 cells; format: toxicity, cell-based
Zika virus = assay: Antiviral activity against Zika virus infected in african green monkey Vero E6 cells assessed as inhibition of cytopathic effect by microscopy based analysis; format: functional, organism-based; conditions: Vero C1008
[2] = Cytotoxicity against African green monkey Vero E6 cells; format: toxicity, cell-based, Vero C1008; conditions: chlorocebus sabaeus
Chikungunya virus = assay: Antiviral activity against CHIKV infected in African green monkey Vero A cells assessed as inhibition of cytopathic effect by microscopy based analysis; format: functional, organism-based
[3] = Cytotoxicity against African green monkey Vero A cells; format: toxicity, cell-based; conditions: chlorocebus sabaeus
[4] = Selectivity index, ratio of CC50 for African green monkey Vero A cells to IC50 for CHIKV infected in African green monkey Vero A cells; format: toxicity; conditions: read-out: Ratio CC50/IC50
Enterovirus A71 = assay: Antiviral activity against human EV71 infected in human RD cells assessed as inhibition of cytopathic effect by microscopy based analysis; format: functional, organism-based; conditions: Enterovirus A
[5] = Cytotoxicity against human RD cells; format: toxicity, cell-based
Human rhinovirus sp. [6] = assay: Antiviral activity against Human rhinovirus B14 infected in human HeLa-RH cells assessed as inhibition of cytopathic effect by microscopy based analysis; format: functional, organism-based
[7] = Cytotoxicity against human HeLa-RH cells; format: toxicity, cell-based
Human rhinovirus sp. [8] = assay: Antiviral activity against Human rhinovirus A2 infected in human HeLa-RH cells assessed as inhibition of cytopathic effect by microscopy based analysis; format: functional, organism-based
Escherichia coli [9] = assay: Antibacterial activity against Escherichia coli CIP 53154 assessed as reduction in bacterial growth by micro-broth dilution method; format: functional
Escherichia coli [10] = assay: Bactericidal activity against Escherichia coli CIP 53154; format: functional
Pseudomonas aeruginosa [11] = assay: Antibacterial activity against Pseudomonas aeruginosa CIP A22 assessed as reduction in bacterial growth by micro-broth dilution method; format: functional
Pseudomonas aeruginosa [12] = assay: Bactericidal activity against Pseudomonas aeruginosa CIP A22; format: functional
Staphylococcus aureus [13] = assay: Antibacterial activity against Staphylococcus aureus CIP 54127 assessed as reduction in bacterial growth by micro-broth dilution method; format: functional
Staphylococcus aureus [14] = assay: Bactericidal activity against Staphylococcus aureus CIP 54127; format: functional
Enterococcus faecalis [15] = assay: Antibacterial activity against Enterococcus faecalis assessed as reduction in bacterial growth by micro-broth dilution method; format: functional
Enterococcus faecalis [16] = assay: Bactericidal activity against Enterococcus faecalis; format: functional
Escherichia coli [17] = assay: Ratio of MBC to MIC for Escherichia coli CIP 53154; format: functional
Pseudomonas aeruginosa [18] = assay: Ratio of MBC to MIC for Pseudomonas aeruginosa CIP A22; format: functional
Staphylococcus aureus [19] = assay: Ratio of MBC to MIC for Staphylococcus aureus CIP 54127; format: functional
Enterococcus faecalis [20] = assay: Ratio of MBC to MIC for Enterococcus faecalis; format: functional
[21] = Selectivity index, ratio of CC50 for human Huh-7 cells to IC50 for Yellow fever virus infected in human Huh-7 cells; format: toxicity, cell-based; conditions: read-out: Ratio CC50/IC50

Compound	IC50 (Yellow fever virus) [µM]	CC50 [1] [µM]	IC50 (Zika virus) [µM]	CC50 [2] [µM]	IC50 (Chikungunya virus) [µM]	CC50 [3] [µM]	IC50 (Enterovirus A71) [µM]	CC50 [5] [µM]	IC50 (Human rhinovirus sp. [6]) [µM]	CC50 [7] [µM]	IC50 (Human rhinovirus sp. [8]) [nM]	MIC (Escherichia coli [9]) [µM]	MBC (Escherichia coli [10]) [µM]	MIC (Pseudomonas aeruginosa [11]) [µM]	MBC (Pseudomonas aeruginosa [12]) [µM]	MIC (Staphylococcus aureus [13]) [µM]	MBC (Staphylococcus aureus [14]) [µM]	MIC (Enterococcus faecalis [15]) [µM]	MBC (Enterococcus faecalis [16]) [µM]	Ratio (Escherichia coli [17])	further results
CCOP(=O)(OCC)C(Nc1ccccc1)c1cc(Cn2cc(Cn3c(=O)cc(C)c4ccccc43)nn2)ccc1O (stereo not drawn)	> 100	51.1	> 100	> 100	56.9	> 100	> 100	> 100	> 100	> 100	> 3700	270 (≈ 159 µg/mL)	530 (≈ 311 µg/mL)	2130 (≈ 1250 µg/mL)	2130 (≈ 1250 µg/mL)	530 (≈ 311 µg/mL)	1070 (≈ 629 µg/mL)	270 (≈ 159 µg/mL)	270 (≈ 159 µg/mL)	1.96	selectivity ratio [4]: > 1.76; Ratio (Pseudomonas aeruginosa [18]): 1; Ratio (Staphylococcus aureus [19]): 2.02; Ratio (Enterococcus faecalis [20]): 1
CCOP(=O)(OCC)C(Nc1ccc(F)cc1)c1cc(Cn2cc(Cn3c(=O)cc(C)c4ccccc43)nn2)ccc1O (stereo not drawn)	> 100	31.4	> 100	> 100	26.6	75.2	> 100	75.8	> 100	83.8	> 3700	510 (≈ 309 µg/mL)	1040 (≈ 630 µg/mL)	2060 (≈ 1250 µg/mL)	2060 (≈ 1250 µg/mL)	260 (≈ 157 µg/mL)	510 (≈ 309 µg/mL)	70 (≈ 42.4 µg/mL)	70 (≈ 42.4 µg/mL)	2.04	selectivity ratio [4]: 2.83; Ratio (Pseudomonas aeruginosa [18]): 1.98; Ratio (Staphylococcus aureus [19]): 1.96; Ratio (Enterococcus faecalis [20]): 1
CCOP(=O)(OCC)C(Nc1ccccc1Br)c1cc(Cn2cc(Cn3c(=O)cc(C)c4cc(Br)ccc43)nn2)ccc1O (stereo not drawn)	10.4	27.9	> 100	> 100	57.3	10.1	> 100	> 100	> 100	18.4	> 410	420 (≈ 313 µg/mL)	850 (≈ 634 µg/mL)	420 (≈ 313 µg/mL)	420 (≈ 313 µg/mL)	210 (≈ 157 µg/mL)	420 (≈ 313 µg/mL)	50 (≈ 37.3 µg/mL)	50 (≈ 37.3 µg/mL)	2.02	selectivity ratio [21]: 2.68; selectivity ratio [4]: 0.18; Ratio (Pseudomonas aeruginosa [18]): 1; Ratio (Staphylococcus aureus [19]): 2; Ratio (Enterococcus faecalis [20]): 1
CCOP(=O)(OCC)C(Nc1ccc(F)cc1)c1cc(Cn2cc(Cn3c(=O)cc(C)c4cc(Br)ccc43)nn2)ccc1O (stereo not drawn)	> 100	22.2	> 100	> 33.3	6.8	25.8	> 100	> 100	> 33.3	20.9	> 410	920 (≈ 630 µg/mL)	920 (≈ 630 µg/mL)	1830 (≈ 1250 µg/mL)	1830 (≈ 1250 µg/mL)	450 (≈ 308 µg/mL)	450 (≈ 308 µg/mL)	60 (≈ 41.1 µg/mL)	60 (≈ 41.1 µg/mL)	1	selectivity ratio [4]: 3.79; Ratio (Pseudomonas aeruginosa [18]): 1; Ratio (Staphylococcus aureus [19]): 1; Ratio (Enterococcus faecalis [20]): 1
CCOP(=O)(OCC)C(Nc1ccc(C)cc1)c1cc(Cn2cc(Cn3c(=O)cc(C)c4cc(F)ccc43)nn2)ccc1O (stereo not drawn)	> 100	> 100	> 100	> 100	> 100	> 33.3	> 100	> 100	> 100	> 100	> 11100	930 (≈ 576 µg/mL)	930 (≈ 576 µg/mL)	7350 (≈ 4550 µg/mL)	7350 (≈ 4550 µg/mL)	240 (≈ 149 µg/mL)	240 (≈ 149 µg/mL)	60 (≈ 37.2 µg/mL)	60 (≈ 37.2 µg/mL)	1	Ratio (Pseudomonas aeruginosa [18]): 2; Ratio (Staphylococcus aureus [19]): 1; Ratio (Enterococcus faecalis [20]): 1
CCOP(=O)(OCC)C(Nc1ccccc1OC)c1cc(Cn2cc(Cn3c(=O)cc(C)c4cc(F)ccc43)nn2)ccc1O (stereo not drawn)	> 100	88	> 100	> 33.3	> 100	40.8	> 100	> 100	> 100	> 100	> 1230	1970 (≈ 1250 µg/mL)	1970 (≈ 1250 µg/mL)	1970 (≈ 1250 µg/mL)	1970 (≈ 1250 µg/mL)	250 (≈ 159 µg/mL)	490 (≈ 311 µg/mL)	60 (≈ 38.1 µg/mL)	60 (≈ 38.1 µg/mL)	1	Ratio (Pseudomonas aeruginosa [18]): 1.99; Ratio (Staphylococcus aureus [19]): 1.96; Ratio (Enterococcus faecalis [20]): 1
